US20130192322A1, “Plant Fertilizers Derived from Organic Nitrogen and Phosphorus Sources” (priority 2011, published 2013)

Tested on: Tomato (var. Pink Girl)
Experiment: Example 4: effect of enzymatically hydrolyzed protein and phytic acid on tomato growth in greenhouse mix
Format: in vivo
Protocol: Tomato (var. Pink Girl) were grown in a greenhouse mix (⅓ each of components, soil, peat moss and vermiculite). The treatments were arranged in randomized design with 3 replicates for each treatment. Seedlings were harvested and tops weighed forty six days after planting. Treatments included additions of phytic acid and protein hydrolyzate separately and in combination at different concentrations and applied to the soil and as foliar. First application, made two weeks after planting, was both as a foliar and to the soil (50 ml/plant). The second application, made two weeks following the first,) was both to soil (80 ml/plant) and as a foliar.

O=P(O)(O)O[C@H]1[C@H](OP(=O)(O)O)[C@@H](OP(=O)(O)O)[C@H](OP(=O)(O)O)[C@@H](OP(=O)(O)O)[C@H]1OP(=O)(O)O [Phytic Acid, phytic acid]
% of control (0.04% P2O5, Foliar): 109% | Av. Top fresh wt. of plants (0.04% P2O5, Foliar): 27.0 gm | % of control (0.04% P2O5, Soil application): 109% | Av. Top fresh wt. of plants (0.04% P2O5, Soil application): 27.0 gm | % of control (0.1% P2O5, Foliar): 107% | Av. Top fresh wt. of plants (0.1% P2O5, Foliar): 26.3 gm | % of control (0.1% P2O5, Soil application): 128% | Av. Top fresh wt. of plants (0.1% P2O5, Soil application): 31.5 gm
